From patent US20070099828A1, “BIOMARKERS FOR THE EFFICACY OF CALCITONIN AND PARATHYROID HORMONE TREATMENT” (priority 2003, published 2007)
“And” between values parts separate entries of the source, which are not always exact repeats. Equal entries are not always repeated. Ends that are not written are not given here.

Legend:
[1] = Hormone determinations in serum; assay type: in vivo, cynomolgus monkeys (Macaca fascicularis); settings: males
Description: (§1) Blood sampling. […] Blood samples were taken from a peripheral vein.

[2] = cynomolgus monkey, in vivo
Description: Animals. […] Solvent was used as vehicle for the control group.
The animals used in this analysis were cynomolgus monkeys (Macaca fascicularis), supplied by Centre de Recherches Primatologiques, Port Louis, Mauritius. Two animals were used per group and sex. At the beginning of the treatment period, the animals were at least 24 months old, with a body weight of approximately 3 kg. Animals were kept under standard conditions for animal welfare. Animals were examined daily for mortality, food consumption and clinical observations. Body weight was recorded once per week.

Haematology = assay type: in vivo, cynomolgus monkeys (Macaca fascicularis)
Description: as §1

Blood pressure = assay type: in vivo, cynomolgus monkeys (Macaca fascicularis); settings: for Blood Pressure Difference: Week 2 vs Week-1; for Blood Pressure Week-1: before dosing
[3] = urine, females, day −8 (pre-dose)

ACTH ([1]; day 7): 101 pg/mL and 88 pg/mL
ALDOST ([1]; day 7): 380 pg/mL and 471 pg/mL
C-PEPTI ([1]; day 7): 2.90 ng/mL and 4.40 ng/mL
CORTISOL ([1]; day 7): 1156 nmol/L and 1432 nmol/L
CT ([1]; day 7): 4.0 pg/mL and 7.8 pg/mL
G.H. ([1]; day 7): 15.8 ng/mL and 11.6 ng/mL
GASTRIN ([1]; day 7): 84 pg/mL and 98 pg/mL
GLUCAG ([1]; day 7): 656 pg/mL and 497 pg/mL
INSULIN ([1]; day 7): 22.0 mU/l and 38.0 mU/l
IPH ([1]; day 7): 96 pg/mL and 62 pg/mL
S.MED ([1]; day 7): 749 ng/mL and 828 ng/mL
T3 ([1]; day 7): 3.47 nmol/L and 2.76 nmol/L
T4 ([1]; day 7): 90 nmol/L and 80 nmol/L
VD25-H ([1]; day 7): 62 nmol/L
ACTH ([1]; day 13): 83 pg/mL and 91 pg/mL
ALDOST ([1]; day 13): 592 pg/mL and 651 pg/mL
C-PEPTI ([1]; day 13): 2.10 ng/mL and 2.40 ng/mL
CORTISOL ([1]; day 13): 1299 nmol/L and 1212 nmol/L
CT ([1]; day 13): 4.6 pg/mL and 7.6 pg/mL
G.H. ([1]; day 13): 12.1 ng/mL and 14.0 ng/mL
GASTRIN ([1]; day 13): 78 pg/mL and 94 pg/mL
GLUCAG ([1]; day 13): 786 pg/mL and 739 pg/mL
INSULIN ([1]; day 13): 14.0 mU/l and 10.0 mU/l
IPH ([1]; day 13): 78 pg/mL and 55 pg/mL
S.MED ([1]; day 13): 914 ng/mL and 867 ng/mL
T3 ([1]; day 13): 3.55 nmol/L and 2.43 nmol/L
T4 ([1]; day 13): 68 nmol/L and 56 nmol/L
VD25-H ([1]; day 13): 50 nmol/L
ALDOST ([1]; day −6 (pre-dose)): 265 pg/mL and 141 pg/mL
CORTISOL ([1]; day −6 (pre-dose)): 1662 nmol/L and 1506 nmol/L
CT ([1]; day −6 (pre-dose)): 6.1 pg/mL and 10.4 pg/mL
G.H. ([1]; day −6 (pre-dose)): 13.4 ng/mL and 8.5 ng/mL
GLUCAG ([1]; day −6 (pre-dose)): 858 pg/mL and 694 pg/mL
INSULIN ([1]; day −6 (pre-dose)): 16.0 mU/l and 12.0 mU/l
IPH ([1]; day −6 (pre-dose)): 123 pg/mL and 71 pg/mL
PROLACT ([1]; day −6 (pre-dose)): 7.1 ng/mL and 7.5 ng/mL
T3 ([1]; day −6 (pre-dose)): 2.48 nmol/L and 1.38 nmol/L
T4 ([1]; day −6 (pre-dose)): 84 nmol/L and 59 nmol/L
VD25-H ([1]; day −6 (pre-dose)): 77 nmol/L and 88 nmol/L
ACTH ([1]; day −6 relative to start of dosing (pre-dose)): 96 pg/mL and 115 pg/mL
Food Consumption Avg., Both animals [2]: 89.6
B (Haematology; females, d 7): 0.06 G/L and 0.04 G/L
L (Haematology; females, d 7): 6.29 G/L and 5.87 G/L
MCH (Haematology; females, d 7): 18.9 pg and 19 pg
MCV (Haematology; females, d 7): 67 fL and 68 fL
PCV (Haematology; females, d 7): 0.41 l/l and 0.43 l/l
PLAT (Haematology; females, d 7): 525 G/L and 382 G/L
RBC (Haematology; females, d 7): 6.2 T/l and 6.4 T/l
WBC (Haematology; females, d 7): 18.4 G/l and 12.3 G/l
B (Haematology; females, d 13): 0.03 G/L and 0.04 G/L
E (Haematology; females, d 13): 0.21 G/L and 0.29 G/L
HB (Haematology; females, d 13): 11.3 g/dL
L (Haematology; females, d 13): 5.81 G/L and 5.21 G/L
MCH (Haematology; females, d 13): 19.3 pg and 19.2 pg
MCV (Haematology; females, d 13): 67 fL and 66 fL
PCV (Haematology; females, d 13): 0.4 l/l and 0.39 l/l
PLAT (Haematology; females, d 13): 496 G/L and 309 G/L
RBC (Haematology; females, d 13): 5.9 T/l
WBC (Haematology; females, d 13): 13.2 G/l and 10.1 G/l
L (Haematology; females, d −8 (before dosing)): 3.92 G/L and 4.4 G/L
MCH (Haematology; females, d −8 (before dosing)): 19.3 pg
MCV (Haematology; females, d −8 (before dosing)): 63 fL and 64 fL
PCV (Haematology; females, d −8 (before dosing)): 0.44 l/l and 0.43 l/l
RBC (Haematology; females, d −8 (before dosing)): 6.9 T/l and 6.7 T/l
WBC (Haematology; females, d −8 (before dosing)): 10.1 G/l and 14.3 G/l
monocyte count (Haematology; females, d −8 (before dosing)): 0.8 G/l and 0.54 G/l
B (Haematology; males, d 7): 0.02 G/l and 0.03 G/l
HB (Haematology; males, d 7): 11.3 g/dL and 11.9 g/dL
L (Haematology; males, d 7): 5.91 G/l and 5.30 G/l
MCH (Haematology; males, d 7): 17.7 pg and 20.2 pg
MCHC (Haematology; males, d 7): 29.3 g/dL and 30.2 g/dL
MCV (Haematology; males, d 7): 60 fL and 67 fL
PCV (Haematology; males, d 7): 0.38 l/l and 0.40 l/l
PLAT (Haematology; males, d 7): 456 G/l and 589 G/l
RBC (Haematology; males, d 7): 6.4 T/l and 5.9 T/l
WBC (Haematology; males, d 7): 8.4 G/l and 15.0 G/l
B (Haematology; males, d 13): 0.04 G/l and 0.03 G/l
HB (Haematology; males, d 13): 11.7 g/dL and 11.8 g/dL
L (Haematology; males, d 13): 5.37 G/l and 4.86 G/l
M (Haematology; males, d 13): 0.27 G/l and 0.46 G/l
MCH (Haematology; males, d 13): 17.3 pg and 20.3 pg
MCHC (Haematology; males, d 13): 27.5 g/dL and 29.2 g/dL
MCV (Haematology; males, d 13): 63 fL and 70 fL
PCV (Haematology; males, d 13): 0.43 l/l and 0.41 l/l
PLAT (Haematology; males, d 13): 330 G/l and 452 G/l
RBC (Haematology; males, d 13): 6.8 T/l and 5.8 T/l
WBC (Haematology; males, d 13): 8.8 G/l and 11.9 G/l
HB (Haematology; males, d −6 (before dosing)): 13.6 g/dL and 13.2 g/dL
L (Haematology; males, d −6 (before dosing)): 5.07 G/l and 3.99 G/l
MCH (Haematology; males, d −6 (before dosing)): 18.0 pg and 20.4 pg
MCHC (Haematology; males, d −6 (before dosing)): 31.5 g/dL and 33.1 g/dL
MCV (Haematology; males, d −6 (before dosing)): 57 fL and 62 fL
PCV (Haematology; males, d −6 (before dosing)): 0.43 l/l and 0.40 l/l
PLAT (Haematology; males, d −6 (before dosing)): 325 G/l and 459 G/l
RBC (Haematology; males, d −6 (before dosing)): 7.6 T/l and 6.5 T/l
WBC (Haematology; males, d −6 (before dosing)): 10.4 G/l and 9.1 G/l
Ca2+ (urine) (Urinary analysis; males, day 13): 7.55 mmol/L and 13.10 mmol/L
I.PHOS (urine) (Urinary analysis; males, day 13): 0.10 mmol/L and 0.17 mmol/L
K+ (urine) (Urinary analysis; males, day 13): 107 mmol/L and 69 mmol/L
LDH (urine) (Urinary analysis; males, day 13): 14.0 IU/L and 19.0 IU/L
Mg2+ (urine) (Urinary analysis; males, day 13): 8.70 mmol/L and 5.25 mmol/L
NAG (urine) (Urinary analysis; males, day 13): 2.9 IU/l and 2.6 IU/l
CREAT (urine) (Urinary analysis; males, day −5 (before dosing)): 16160 µmol/L and 16120 µmol/L
CREAT (urine) (Urinary analysis; males, day −6 (before dosing)): 16160 µmol/L and 9940 µmol/L
Ca2+ (urine) (Urinary analysis; males, day −6 (before dosing)): 5.10 mmol/L and 3.50 mmol/L
K+ (urine) (Urinary analysis; males, day −6 (before dosing)): 86 mmol/L and 125 mmol/L
LDH (urine) (Urinary analysis; males, day −6 (before dosing)): 7.0 IU/L and 9.0 IU/L
CREAT (Urinary analysis; urine, females, day 13): 5620 µmol/L and 8060 µmol/L
Ca2+ (Urinary analysis; urine, females, day 13): 20.05 mmol/L and 12.35 mmol/L
Cl− (Urinary analysis; urine, females, day 13): 101 mmol/L and 133 mmol/L
LDH (Urinary analysis; urine, females, day 13): 10.0 IU/L and 9.0 IU/L
Mg2+ (Urinary analysis; urine, females, day 13): 6.90 mmol/L and 5.90 mmol/L
VOLUME (Urinary analysis; urine, females, day 13 of dosing): 52 mL and 42 mL
CREAT (Urinary analysis; [3]): 19160 µmol/L and 14060 µmol/L
Ca2+ (Urinary analysis; [3]): 11.50 mmol/L and 6.60 mmol/L
K+ (Urinary analysis; [3]): 302 mmol/L and 164 mmol/L
LDH (Urinary analysis; [3]): 11.0 IU/L and 18.0 IU/L
Mg2+ (Urinary analysis; [3]): 7.35 mmol/L and 4.00 mmol/L
Na+ (Urinary analysis; [3]): 145 mmol/L and 118 mmol/L
Sequence: SVSEIQLLHDKGKHLASQERVEWLRKKLQDVHTA [PTS893, Leu8, Asp10, Lys11, Ala16, Gln18, Thr33, Ala34 human PTH 1-34 [hPTH(1-34)]]
Blood Pressure Week 2 (Blood pressure; Female, first line per animal): 70 mmHg and 87 mmHg
Blood Pressure Difference (Blood pressure; Female, first line per animal): −22 mmHg and 9 mmHg
Blood Pressure Week-1 (Blood pressure; Female, first line per animal): 92 mmHg and 78 mmHg
Blood Pressure Week 2 (Blood pressure; Female, second line per animal): 42 mmHg and 28 mmHg
Blood Pressure Difference (Blood pressure; Female, second line per animal): −1 mmHg and 4 mmHg
Blood Pressure Week-1 (Blood pressure; Female, second line per animal): 43 mmHg and 24 mmHg
Blood Pressure Week 2 (Blood pressure; Male, first line per animal): 87 mmHg and 101 mmHg
Blood Pressure Difference (Blood pressure; Male, first line per animal): 11 mmHg and −5 mmHg
Blood Pressure Week-1 (Blood pressure; Male, first line per animal): 76 mmHg and 106 mmHg
Blood Pressure Week 2 (Blood pressure; Male, second line per animal): 22 mmHg and 33 mmHg
Blood Pressure Difference (Blood pressure; Male, second line per animal): 4 mmHg and −20 mmHg
Blood Pressure Week-1 (Blood pressure; Male, second line per animal): 18 mmHg and 53 mmHg
